In patent US12606528B2, “Methods and materials for inhibiting NF-kB activity” (University of Pittsburgh - Of the Commonwealth System of …, priority 2019, dated 2026):
Where two headings read alike, the source gives them in different places.

Assays:
NF-κB = NF-κB assay: THP1-NF-κB-LUC cells, LPS-stimulated secreted luciferase; assay type: cell-based; settings: THP1-NF-κB-LUC cells, read-out: IC50 (NF-κB assay)
Method in brief: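 THP1-NF-κB-LUC cells (25k/well) were pretreated with compounds for 2 h, then stimulated with LPS (10 ng/mL) for 18 h. Secreted luciferase was measured and normalized to vehicle, and IC50 was fitted from the concentration series.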

TNF release = assay: TNF assay: TNF release from LPS-stimulated human PBMCs (TNF ELISA); assay type: cell-based; settings: read-out: IC50 (TNF assay)
Method in brief: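 Human PBMCs at 10k/well pretreated with compound dilutions 2 h, then stimulated with LPS (10 ng/mL) for 18 h. TNF in supernatants quantified by ELISA; IC50 for inhibition of TNF release fitted from concentration–response.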

[1] = compounds 2 hours before LPS (10 ng/mL) for 18 hours, secreted luciferase
[2] = PBMC, human PBMCs, compounds 2 hours before LPS (10 ng/ml) for 18 hours, supernatant TNF ELISA
[3] = PBMC, LPS-stimulated human PBMCs, TNF ELISA

IC50 (NF-κB; [1])	IC50 (TNF release; [2])	IC50 (NF-κB; LPS-stimulated)	IC50 (TNF release; [3])	IC50 (TNF release; human PBMCs, compounds 2 hours before LPS (10 ng/ml) for 18 hours, supernatant TNF ELISA)	SMILES
< 100 nM	1 to 10 µM				CC1Oc2cc(S(=O)(=O)Nc3ccc(F)cc3)c(Cl)cc2NC1=O (stereo not shown) [BC19721]
< 100 nM	1 to 10 µM				CC1Oc2c(cc(Cl)cc2S(=O)(=O)Nc2ccc(F)cc2)NC1=O (stereo not shown) [BC19722]
100 to 1000 nM	> 10 µM				CCC1Oc2cc(S(=O)(=O)Nc3ccc(F)cc3)c(Cl)cc2NC1=O (stereo not shown) [BC19731]
< 100 nM	1 to 10 µM				CCC1Oc2c(cc(Cl)cc2S(=O)(=O)Nc2ccc(F)cc2)NC1=O (stereo not shown) [BC19732]
< 100 nM	> 10 µM				CCC1Oc2cc(S(=O)(=O)Nc3ccc(OC(F)(F)F)cc3)c(Cl)cc2NC1=O (stereo not shown) [BC19733]
< 100 nM	> 10 µM				CCC1Oc2cc(S(=O)(=O)Nc3ccc(Cl)cc3)c(Cl)cc2NC1=O (stereo not shown) [BC19739]
< 100 nM	> 10 µM				CCc1ccc(NS(=O)(=O)c2cc3c(cc2Cl)NC(=O)C(CC)O3)cc1 (stereo not shown) [BC19741]
< 100 nM	> 10 µM				CCC1Oc2cc(S(=O)(=O)Nc3ccc(C)cc3)c(Cl)cc2NC1=O (stereo not shown) [BC19753]
< 100 nM	> 10 µM				CC(C)CC1Oc2c(cc(Br)cc2S(=O)(=O)Nc2ccc(OC(F)(F)F)cc2)NC1=O (stereo not shown) [BC19757]
100 to 1000 nM	> 10 µM				CC(C)CC1Oc2cc(S(=O)(=O)Nc3ccc(OC(F)(F)F)cc3)c(Br)cc2NC1=O (stereo not shown) [BC19758]
< 100 nM	> 10 µM				CC(C)CC1Oc2c(cc(Br)cc2S(=O)(=O)Nc2ccc(F)c(F)c2)NC1=O (stereo not shown) [BC19759]
< 100 nM	> 10 µM				CC(C)CC1Oc2cc(S(=O)(=O)Nc3ccc(F)c(F)c3)c(Br)cc2NC1=O (stereo not shown) [BC19760]
100 to 1000 nM	> 10 µM				CC(C)CC1Oc2c(cc(Br)cc2S(=O)(=O)Nc2ccccc2)NC1=O (stereo not shown) [BC19761]
100 to 1000 nM	> 10 µM				CC(C)CC1Oc2cc(S(=O)(=O)Nc3ccccc3)c(Br)cc2NC1=O (stereo not shown) [BC19762]
100 to 1000 nM	1 to 10 µM				CCc1ccc(NS(=O)(=O)c2cc(Br)cc3c2OC(CC(C)C)C(=O)N3)cc1 (stereo not shown) [BC19763]
1000 to 10000 nM	> 10 µM				CCc1ccc(NS(=O)(=O)c2cc3c(cc2Br)NC(=O)C(CC(C)C)O3)cc1 (stereo not shown) [BC19764]
< 100 nM	> 10 µM				CC(C)CC1Oc2c(cc(Br)cc2S(=O)(=O)Nc2ccc(C(C)C)cc2)NC1=O (stereo not shown) [BC19765]

IC50 (NF-κB; [1])	IC50 (TNF release; [2])	IC50 (NF-κB; LPS-stimulated)	IC50 (TNF release; [3])	IC50 (TNF release; human PBMCs, compounds 2 hours before LPS (10 ng/ml) for 18 hours, supernatant TNF ELISA)	SMILES
1000 to 10000 nM	1 to 10 µM				CC(C)CC1Oc2cc(S(=O)(=O)Nc3ccc(C(C)C)cc3)c(Br)cc2NC1=O (stereo not shown) [BC19766]
< 100 nM	> 10 µM				Cc1ccc(NS(=O)(=O)c2cc(Br)cc3c2OC(CC(C)C)C(=O)N3)cc1Cl (stereo not shown) [BC19767]
1000 to 10000 nM	> 10 µM				Cc1ccc(NS(=O)(=O)c2cc3c(cc2Br)NC(=O)C(CC(C)C)O3)cc1Cl (stereo not shown) [BC19768]
< 100 nM	> 10 µM				CC(C)CC1Oc2c(cc(Br)cc2S(=O)(=O)Nc2ccc(F)cc2F)NC1=O (stereo not shown) [BC19769]
100 to 1000 nM	> 10 µM				CC(C)CC1Oc2cc(S(=O)(=O)Nc3ccc(F)cc3F)c(Br)cc2NC1=O (stereo not shown) [BC19770]
< 100 nM	> 10 µM				CCc1cccc(NS(=O)(=O)c2cc(Br)cc3c2OC(CC(C)C)C(=O)N3)c1 (stereo not shown) [BC19771]
100 to 1000 nM	> 10 µM				CCc1cccc(NS(=O)(=O)c2cc3c(cc2Br)NC(=O)C(CC(C)C)O3)c1 (stereo not shown) [BC19772]
< 100 nM	> 10 µM				CC(C)CC1Oc2c(cc(Br)cc2S(=O)(=O)Nc2cccc(F)c2)NC1=O (stereo not shown) [BC19773]
100 to 1000 nM	> 10 µM				CC(C)CC1Oc2cc(S(=O)(=O)Nc3cccc(F)c3)c(Br)cc2NC1=O (stereo not shown) [BC19774]
< 100 nM	> 10 µM				CC(C)CC1Oc2c(cc(Br)cc2S(=O)(=O)Nc2cccc(Cl)c2)NC1=O (stereo not shown) [BC19775]
100 to 1000 nM	> 10 µM				CC(C)CC1Oc2cc(S(=O)(=O)Nc3cccc(Cl)c3)c(Br)cc2NC1=O (stereo not shown) [BC19776]
< 100 nM	> 10 µM				CC(C)CC1Oc2c(cc(Br)cc2S(=O)(=O)Nc2ccc(F)cc2Cl)NC1=O (stereo not shown) [BC19777]
> 10000 nM	> 10 µM				CC(C)CC1Oc2cc(S(=O)(=O)Nc3ccc(F)cc3Cl)c(Br)cc2NC1=O (stereo not shown) [BC19778]
100 to 1000 nM	1 to 10 µM				COc1ccc(NS(=O)(=O)c2cc(Br)cc3c2OC(CC(C)C)C(=O)N3)cc1Cl (stereo not shown) [BC19779]
1000 to 10000 nM	> 10 µM				COc1ccc(NS(=O)(=O)c2cc3c(cc2Br)NC(=O)C(CC(C)C)O3)cc1Cl (stereo not shown) [BC19780]
< 100 nM	1 to 10 µM				CC(C)CC1Oc2c(cc(Br)cc2S(=O)(=O)Nc2ccc(F)cc2)NC1=O (stereo not shown) [BC19781]
1000 to 10000 nM	> 10 µM				CC(C)CC1Oc2cc(S(=O)(=O)Nc3ccc(F)cc3)c(Br)cc2NC1=O (stereo not shown) [BC19782]

The remaining lines, values behind:

SMILES	IC50 (NF-κB; [1])	IC50 (TNF release; [2])	IC50 (NF-κB; LPS-stimulated)	IC50 (TNF release; [3])	IC50 (TNF release; human PBMCs, compounds 2 hours before LPS (10 ng/ml) for 18 hours, supernatant TNF ELISA)
CN1CCN(C(=O)C2Cc3nc(-c4ccc(F)cc4)c(-c4ccc(F)cc4)nc3C2)CC1 [BC19723]			100 to 1000 nM	> 10 µM	
CCC[S+]([O-])c1sc(-c2cccnc2)nc1S(=O)(=O)c1ccc(Cl)cc1 (stereo not shown) [BC19724]			1000 to 10000 nM	1 to 10 µM	
CC(C)[S+]([O-])c1sc(-c2cccnc2)nc1S(=O)(=O)c1ccc(Cl)cc1 (stereo not shown) [BC19725]			> 10000 nM	> 10 µM	
CC(C)Sc1snc(-c2ccc(F)cc2)c1S(=O)(=O)c1ccc(Cl)cc1 [BC19726]			> 10000 nM	> 10 µM	
CC(C)[S+]([O-])c1snc(-c2ccc(F)cc2)c1S(=O)(=O)c1ccc(Cl)cc1 (stereo not shown) [BC19727]			1000 to 10000 nM	1 to 10 µM	
CC(C)S(=O)(=O)c1snc(-c2ccc(F)cc2)c1S(=O)(=O)c1ccc(Cl)cc1 [BC19728]			> 10000 nM	1 to 10 µM	
CC1Oc2cc(S(=O)(=O)Nc3ccc(C#N)cc3)c(Cl)cc2NC1=O (stereo not shown) [BC19729]	100 to 1000 nM	> 10 µM			
CC1Oc2c(cc(Cl)cc2S(=O)(=O)Nc2ccc(C#N)cc2)NC1=O (stereo not shown) [BC19730]	< 100 nM	> 10 µM			
CCC1Oc2c(cc(Cl)cc2S(=O)(=O)Nc2ccc(OC(F)(F)F)cc2)NC1=O (stereo not shown) [BC19734]	< 100 nM	> 10 µM			
CCC1Oc2cc(S(=O)(=O)Nc3ccc(F)c(F)c3)c(Cl)cc2NC1=O (stereo not shown) [BC19735]	< 100 nM	> 10 µM			
CCC1Oc2c(cc(Cl)cc2S(=O)(=O)Nc2ccc(F)c(F)c2)NC1=O (stereo not shown) [BC19736]	< 100 nM	> 10 µM			
CCC1Oc2cc(S(=O)(=O)Nc3ccccc3)c(Cl)cc2NC1=O (stereo not shown) [BC19737]	100 to 1000 nM	> 10 µM			
CCC1Oc2c(cc(Cl)cc2S(=O)(=O)Nc2ccccc2)NC1=O (stereo not shown) [BC19738]	< 100 nM	> 10 µM			
CCC1Oc2c(cc(Cl)cc2S(=O)(=O)Nc2ccc(Cl)cc2)NC1=O (stereo not shown) [BC19740]	< 100 nM	> 10 µM			
CCc1ccc(NS(=O)(=O)c2cc(Cl)cc3c2OC(CC)C(=O)N3)cc1 (stereo not shown) [BC19742]	< 100 nM	1 to 10 µM			
CCC1Oc2c(cc(Cl)cc2S(=O)(=O)Nc2ccc(OC)c(Cl)c2)NC1=O (stereo not shown) [BC19744]	< 100 nM	1 to 10 µM			
CCC1Oc2c(cc(Cl)cc2S(=O)(=O)Nc2ccc(C)c(Cl)c2)NC1=O (stereo not shown) [BC19746]	< 100 nM	> 10 µM			

SMILES	IC50 (NF-κB; [1])	IC50 (TNF release; [2])	IC50 (NF-κB; LPS-stimulated)	IC50 (TNF release; [3])	IC50 (TNF release; human PBMCs, compounds 2 hours before LPS (10 ng/ml) for 18 hours, supernatant TNF ELISA)
CCC1Oc2c(cc(Cl)cc2S(=O)(=O)Nc2ccc(F)cc2F)NC1=O (stereo not shown) [BC19748]	< 100 nM	> 10 µM			
CCc1cccc(NS(=O)(=O)c2cc3c(cc2Cl)NC(=O)C(CC)O3)c1 (stereo not shown) [BC19749]	100 to 1000 nM	> 10 µM			
CCc1cccc(NS(=O)(=O)c2cc(Cl)cc3c2OC(CC)C(=O)N3)c1 (stereo not shown) [BC19750]	< 100 nM	> 10 µM			
CCC1Oc2cc(S(=O)(=O)Nc3cccc(Cl)c3)c(Cl)cc2NC1=O (stereo not shown) [BC19751]	100 to 1000 nM	> 10 µM			
CCC1Oc2c(cc(Cl)cc2S(=O)(=O)Nc2cccc(Cl)c2)NC1=O (stereo not shown) [BC19752]	< 100 nM	> 10 µM			
CCC1Oc2c(cc(Cl)cc2S(=O)(=O)Nc2ccc(C)cc2)NC1=O (stereo not shown) [BC19754]	< 100 nM	1 to 10 µM			
CCC1Oc2cc(S(=O)(=O)Nc3ccc(F)cc3Cl)c(Cl)cc2NC1=O (stereo not shown) [BC19755]	1000 to 10000 nM	> 10 µM			
CCC1Oc2c(cc(Cl)cc2S(=O)(=O)Nc2ccc(F)cc2Cl)NC1=O (stereo not shown) [BC19756]	< 100 nM	> 10 µM			
CC1Oc2c(cc(Br)cc2S(=O)(=O)Nc2ccc(OC(F)(F)F)cc2)N(C)C1=O (stereo not shown) [BC19783]	< 100 nM	> 10 µM			
CC1Oc2cc(S(=O)(=O)Nc3ccc(OC(F)(F)F)cc3)c(Br)cc2N(C)C1=O (stereo not shown) [BC19784]	1000 to 10000 nM	> 10 µM			
Cc1ccc(NS(=O)(=O)c2cc(Br)cc3c2OC(C)C(=O)N3C)cc1F (stereo not shown) [BC19785]	< 100 nM	> 10 µM			
CC1Oc2cc(S(=O)(=O)Nc3ccc(F)c(F)c3)c(Br)cc2N(C)C1=O (stereo not shown) [BC19786]	1000 to 10000 nM	> 10 µM			
CC1Oc2c(cc(Br)cc2S(=O)(=O)Nc2ccc(F)c(F)c2)N(C)C1=O (stereo not shown) [BC19787]	< 100 nM	> 10 µM			
CC1Oc2cc(S(=O)(=O)Nc3ccc(F)c(F)c3)c(Br)cc2N(C)C1=O (stereo not shown) [BC19788]	< 100 nM				> 10 µM
CC1Oc2c(cc(Br)cc2S(=O)(=O)Nc2ccccc2)N(C)C1=O (stereo not shown) [BC19789]	< 100 nM	1 to 10 µM			
CC1Oc2cc(S(=O)(=O)Nc3ccccc3)c(Br)cc2N(C)C1=O (stereo not shown) [BC19790]	1000 to 10000 nM	> 10 µM			
CC1Oc2c(cc(Br)cc2S(=O)(=O)Nc2ccc(Cl)cc2)N(C)C1=O (stereo not shown) [BC19791]	< 100 nM	> 10 µM			
